Patent US20190030039A1, “PREVENTION OF SSRI-INDUCED GASTROINTESTINAL DYSFUNCTION WITH A 5-HT4 RECEPTOR ANTAGONIST” (The Trustees of Columbia University in the City of New York, priority 2016, published 2019)

What was measured:
mice [1] = experiment: Novelty-suppressed feeding (NSF) test, measurement of anxiety; type: in vivo, mouse; details: FIGS. 3A-3D
Protocol: FIGS. 3A-3D are a series of bar graphs showing results from the novelty-suppressed feeding (NSF) test, a measurement of anxiety. Maternal dams were administered either water (control), Fluoxetine (SSRI), or both Fluoxetine and Piboserod (SSRI+Pibo) from E1 through weaning from breastfeeding. Pups were thus exposed to aforementioned medications during gestation and breastfeeding. Once pups were weaned, at P21, they were not given any medications. The pups were evaluated at 6-8 weeks of age to rule out acute drug effects. The NSF test began with a short term food restriction of 18 hours (water was still available). After the test, mice were given food ad libitum again. The NSF test is a “conflict” test, which assesses the competing motivations of the animal to explore (forage) for food versus remain in the safety of the periphery of the arena. Mice were placed into a white box with shavings on the floor and two food pellets placed on a circle of filter paper in the center of the arena. The latency to chew the food is the measure of anxiety. Measured times included time to reach the filter paper with the food pellet on it (“time to filter”), time to touch/smell the pellet (“time to pellet”), time to bite the pellet (“time to bite”) and time to sit and eat the pellet (“time to sit and eat”). […]

mice [2] = experiment: Colonic transit time (glass bead expulsion) in pups exposed during gestation and breastfeeding; type: in vivo; details: Piboserod given to mouse mothers during pregnancy and breastfeeding concomitantly with Fluoxetine; pups evaluated at 6-8 weeks; FIG. 2
Protocol: FIG. 2 is a bar graph showing colonic transit time (expressed as percentage of control). Maternal dams were administered either water (control), Fluoxetine (SSRI), or both Fluoxetine and Piboserod (SSRI+Pibo) from E1 through weaning from breastfeeding. Pups were thus exposed to aforementioned medications during gestation and breastfeeding. Once pups were weaned, at P21, they were not given any medications. Pups were evaluated at 6-8 weeks of age to rule out acute drug effects. Colonic transit time was measured by inserting a 2 mm glass bead 4 cm into the rectum and calculating the time it took for bead expulsion to occur.
(§1) In the present invention, the serotonin-4 receptor (5-HT4R) has been identified as a critical player in SERT modulation, ENS and CNS development and GI function. […] (FIGS. 1-2). […] Administration of a 5-HT4R antagonist during neurodevelopment thus corrects the long-lasting gastrointestinal motility and behavioral defects caused by developmental exposure to SSRls.

mice [3] = experiment: Total intestinal transit time (Rhodamine B bolus) in pups exposed during gestation and breastfeeding; type: in vivo; details: Piboserod given to mouse mothers during pregnancy and breastfeeding concomitantly with Fluoxetine; pups evaluated at 6-8 weeks; FIG. 1
Protocol: FIG. 1 is a bar graph showing total intestinal transit time (expressed as percentage of control). Maternal dams were administered either water (control), Fluoxetine (SSRI), or both Fluoxetine and Piboserod (SSRI+Pibo) from embryonic day 1 (E1) through weaning from breastfeeding. Pups were thus exposed to aforementioned medications during gestation and breastfeeding. Once pups were weaned, at postnatal day 21 (P21), they were not given any medications. Pups were then evaluated at 6-8 weeks of age to rule out acute drug effects. Total intestinal transit time was measured by administering a bolus of Rhodamine B (time 0) and calculating the amount of time until the rhodamine was found in the stool.
as §1

mice [4] = experiment: Sucrose preference test, measurement of depression; type: in vivo, mouse; details: FIG. 4
Protocol: FIG. 4 is a bar graph showing results from the sucrose preference test, a measurement of depression in mice. Maternal dams were administered either water (control), Fluoxetine (SSRI), or both Fluoxetine and Piboserod (SSRI+Pibo) from E1 through weaning from breastfeeding. Pups were thus exposed to aforementioned medications during gestation and breastfeeding. Once pups were weaned, at P21, they were not given any medications. The pups were evaluated at 6-8 weeks of age to rule out acute drug effects. For the sucrose preference test, mice were trained for 2 days to drink diluted sucrose and water from serological pipettes with sippers attached and testing was done on day 3. The volumes of sucrose and water consumed overnight were recorded. A reduced preference for sucrose solution over plain water represents anhedonia.
as §1

[5] = at birth; in utero exposure; cited from earlier work
[6] = mice exposed to Piboserod and Fluoxetine concomitantly in utero and during breastfeeding
[7] = mice exposed to Fluoxetine in utero and during breastfeeding, evaluated at 6-8 weeks

SMILES	anxiety behavior (novelty-suppressed feeding) (mice [1]; [6])	colonic motility (mice [2])	total intestinal transit (mice [3])	depression behavior (sucrose preference test) (mice [4]; [6])	levels of anxiety (novelty-suppressed feeding) (mice [1]; [7])	plasma Fluoxetine levels in newborns, of maternal levels [5]	levels of depression (sucrose preference test) (mice [4]; [7])
CCCCN1CCC(CNC(=O)c2c3n(c4ccccc24)CCCO3)CC1 [Piboserod]	behaviorally comparable to control mice	comparable with control mice	comparable with control mice	behaviorally comparable to control mice			
CNCCC(Oc1ccc(C(F)(F)F)cc1)c1ccccc1 (stereo not shown) [Fluoxetine]					increased levels	approximately 70%	increased levels
